Consider three compounds from ChEMBL document CHEMBL2074439, “Localization and genomic organization of a new hepatocellular organic anion transporting polypeptide” (J Biol Chem, 2000).

One series addresses T1, OATP8 (OATP1B3, SLCO1B3) (Homo sapiens, UniProt Q9NPD5).
T1 sequence (Q9NPD5 whole entry): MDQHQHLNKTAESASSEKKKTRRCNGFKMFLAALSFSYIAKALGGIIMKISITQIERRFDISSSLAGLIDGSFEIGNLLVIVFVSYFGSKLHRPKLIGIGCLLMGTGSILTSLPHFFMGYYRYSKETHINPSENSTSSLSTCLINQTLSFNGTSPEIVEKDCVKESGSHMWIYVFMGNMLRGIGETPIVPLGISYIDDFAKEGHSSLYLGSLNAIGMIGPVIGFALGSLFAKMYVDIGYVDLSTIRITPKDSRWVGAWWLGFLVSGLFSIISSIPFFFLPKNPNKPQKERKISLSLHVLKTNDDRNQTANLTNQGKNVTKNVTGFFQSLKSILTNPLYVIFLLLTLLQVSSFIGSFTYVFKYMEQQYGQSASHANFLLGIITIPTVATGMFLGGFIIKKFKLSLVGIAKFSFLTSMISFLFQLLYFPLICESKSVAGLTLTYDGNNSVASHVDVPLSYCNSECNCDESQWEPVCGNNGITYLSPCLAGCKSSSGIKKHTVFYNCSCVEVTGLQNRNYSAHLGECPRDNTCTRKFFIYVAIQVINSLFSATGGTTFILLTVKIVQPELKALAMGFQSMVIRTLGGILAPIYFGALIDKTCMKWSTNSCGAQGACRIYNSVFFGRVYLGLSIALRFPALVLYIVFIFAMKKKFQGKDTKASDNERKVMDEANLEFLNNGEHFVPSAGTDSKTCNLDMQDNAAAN
The experiment in a line: (§1) TP_TRANSPORTER: uptake in OATP8-expressing HEK293 cells. The format is functional, cell-based. Conditions: HEK293 cells that express OATP8 (OATP1B3).

Series [1] has as its target T2, Solute carrier organic anion transporter family member 1B3 (Homo sapiens, UniProt Q9NPD5).
T2 sequence (Q9NPD5 whole entry): T1 sequence (Q9NPD5 whole entry)
The series is described as §1. The format is functional, cell-based. The note with it: hek293.

On to `C[C@]12CC[C@@H]3c4ccc(O)cc4CC[C@H]3[C@@H]1CC[C@@H]2O[C@@H]1O[C@H](C(=O)O)[C@@H](O)[C@H](O)[C@H]1O` [ESTRADIOL 17B GLUCURONIDE], for which the Km stood at 5.4 µM on OATP8 (OATP1B3, SLCO1B3) and 5.4 µM in series [1].
In the case of `CCCCC/C=C\C\C=C/C=C/C=C/[C@@H](SC[C@@H](NC(=O)CC[C@H](N)C(=O)O)C(=O)NCC(=O)O)[C@@H](O)CCCC(=O)O` [LEUKOTRIEN C4], in series [1], the Activity result is “substrate [+]”.
With `O=C1OC(c2ccc(O)c(S(=O)(=O)O)c2)(c2ccc(O)c(S(=O)(=O)O)c2)c2c(Br)c(Br)c(Br)c(Br)c21` [SULFOBROMOPHTHALEIN SODIUM], the Km was determined as 3.3 µM on OATP8 (OATP1B3, SLCO1B3) and 3.3 µM in series [1].
